Laboratory results reported in patent US10724101B2, “Biomarker SCNN1B for gastric cancer” (The Chinese University of Hong Kong, priority 2016, dated 2020).

Tested on: gastric cancer cell lines (AGS, KATOIII, MGC803, MKN28, MKN45 and SNU1) with silenced SCNN1B expression
Assay: Demethylation treatment with 5-Aza; SCNN1B expression by semiquantitative RT-PCR
Format: cell-based, human
Conditions: 10 μM 5-Aza for 5 days; six cell lines with silenced SCNN1B; FIG. 4
Procedure: Semiquantitative RT-PCR was performed in a total volume of 25 μL reaction containing 1× Premix Ex Taq (Takara, Ohtsu, Japan) and 5-10 ng cDNA. The PCR program started with an initial denaturation at 95° C. for 10 min, followed by 27-35 cycles (95° C. for 30 sec, annealing temperature for 30 sec, and 72° C. for 30 sec) of amplification, with a final extension at 72° C. for 10 min. The PCR bands were visualized under ultraviolet light and photographed. The expression of the target gene was normalized by the expression of house-keeping gene β-actin, which served as an internal control.
Cells were seeded at a density of 1×10^5/100-mm dishes and grew for 24 hr. Cells were then treated with 10 μM 5-aza-2′-deoxycytidine (“5-Aza”) (Sigma-Aldrich) for 5 days. The 5-Aza was replenished every day. The gene expression of SCNN1B was evaluated using semiquantitative RT-PCR.

SMILES: Nc1ncn([C@H]2C[C@H](O)[C@@H](CO)O2)c(=O)n1 [5-Aza, 5-aza-2′-deoxycytidine]
- expression of SCNN1B after demethylation treatment: Restored expression of SCNN1B
